US20210355104A1, “ADENOSINE RECEPTOR BINDING COMPOUNDS” (Nikang Therapeuticsm Inc., priority 2018, published 2021)
pIC50: −log10 of the molar value. Values joined by “and” are separate entries in the source; they are usually repeats but may differ in a detail not shown here. Identical values can stand only once.

Legend:
[1] = target: T1, Adenosine A2A receptor (Homo sapiens, UniProt P29274); test: Adenosine A2A receptor competitive binding assay (Tag-lite HTRF); details: Tag-lite adenosine A2A receptor ligand binding
In short: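 Tag-lite HTRF competition: donor-labelled cells expressing human A2A were mixed with serially diluted compounds (DMSO 0.6% in dilutions) and red fluorescent A2A antagonist ligand (60 nM stock). Incubated 2 h at room temperature before HTRF readout.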

[2] = tested on: p-CREB (phosphorylated cAMP response-element binding protein) in human whole blood; test: p-CREB assay in human whole blood by flow cytometry (NECA stimulation, CD4 staining); assay type: cell-based; details: Homo sapiens
In short: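 Fresh human whole blood preincubated 1 h at room temperature with compounds (11-point 1:3 series from 30 uM) plus adenosine deaminase, then stimulated 30 min with NECA and Rolipram (10× additions of 50 uM stocks). Cells lysed/fixed, permeabilised, stained for p-CREB and CD4, read by flow cytometry.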

[3] = target: T1, Adenosine A2A receptor; test: cAMP assay in 293A cells stably expressing the adenosine A2A receptor (CGS21680 stimulation, HTRF); assay type: cell-based; design: expressed in transfected cells; host or cells: 293A cells (Invitrogen, Cat# R705-07) infected with A2A-expressing lentivirus (custom packaged by Biosettia), puromycin selected; details: 0.1% BSA
[4] = 2 h room temperature, values separated by / are repeat determinations
[5] = values separated by / are repeat determinations
[6] = 293A-A2AR cells, 8 nM CGS, values separated by / are repeat determinations, read-out: cAMP (nM) 0.1% BSA, 8 nM CGS
[7] = 293A-A2AR cells, 1 uM CGS, values separated by / are repeat determinations, read-out: cAMP (nM) 0.1% BSA, 1 uM CGS
[8] = 293A-A2AR cells, 8 nM CGS, read-out: cAMP (nM) 0.1% BSA, 8 nM CGS
[9] = 293A-A2AR cells, 1 uM CGS, read-out: cAMP (nM) 0.1% BSA, 1 uM CGS
[10] = replicate values separated by /
[11] = 293A cells stably expressing A2A receptor, 1 uM CGS21680 stimulation, replicate values separated by /, read-out: cAMP (nM) 0.1% BSA, 1 uM CGS

T1 sequence (P29274 whole entry): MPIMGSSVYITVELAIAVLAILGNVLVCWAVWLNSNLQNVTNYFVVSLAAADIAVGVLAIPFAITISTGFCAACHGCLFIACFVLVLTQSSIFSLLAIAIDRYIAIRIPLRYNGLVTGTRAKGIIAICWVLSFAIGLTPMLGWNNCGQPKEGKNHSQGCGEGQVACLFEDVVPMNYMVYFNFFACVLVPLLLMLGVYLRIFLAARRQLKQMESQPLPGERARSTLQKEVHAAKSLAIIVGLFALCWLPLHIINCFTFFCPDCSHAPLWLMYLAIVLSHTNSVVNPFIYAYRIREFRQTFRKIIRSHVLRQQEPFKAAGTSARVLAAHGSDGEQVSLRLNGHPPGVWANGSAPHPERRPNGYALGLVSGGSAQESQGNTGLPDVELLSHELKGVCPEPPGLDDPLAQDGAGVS

Row | pIC50 [1, 4] | IC50 [2, 5] [nM] | IC50 [3, 6] | IC50 [3, 7] | Compound | further results
1 | 9.15 and 8.27 | 93 | 0.54 nM and 0.49 nM | 96 nM | Cc1cc(-c2c(OCC3CCOCC3)nc(N)nc2-c2ccc(F)cc2)cc(C(F)F)n1 [Example 55, 5-(2-(difluoromethyl)-6-methylpyridin-4-yl)-4-(4-fluorophenyl)-6-((tetrahydro-2H-pyran-4-yl)methoxy)pyrimidin-2-amine] | –
2 | 9.29 | 11.2 | – | 1 nM | Cc1cc(-c2c(OCCN(C)c3ccccn3)nc(N)nc2-c2ccc(F)cc2)cc(C(F)F)n1 [Example 79, 5-(2-(difluoromethyl)-6-methylpyridin-4-yl)-4-(4-fluorophenyl)-6-(2-(methyl(pyridin-2-yl)amino)ethoxy)pyrimidin-2-amine] | –
3 | 8.38 | 469 | – | – | COCC(O)COc1nc(N)nc(-c2ccc(F)cc2)c1-c1cc(C)nc(C(F)F)c1 (stereo not drawn) [Example 85, 1-((2-amino-5-(2-(difluoromethyl)-6-methylpyridin-4-yl)-6-(4-fluorophenyl)pyrimidin-4-yl)oxy)-3-methoxypropan-2-ol] | –
4 | 9.62 | 14 | – | 12 nM | Cc1cc(-c2c(OCc3ccccn3)nc(N)nc2-c2ccc(F)cc2)cc(C(F)F)n1 [Example 95, 5-(2-(difluoromethyl)-6-methylpyridin-4-yl)-4-(4-fluorophenyl)-6-(pyridin-2-ylmethoxy)pyrimidin-2-amine] | –
5 | 8.39 | 1780 | 2.2 nM and 1.1 nM | – | Cc1cc(-c2c(OCCNS(N)(=O)=O)nc(N)nc2-c2ccc(F)cc2)cc(C(F)(F)F)n1 [Example 111] | –
6 | 8.41 | 478 | 1.5 nM and 1.4 nM | 55 nM and 139 nM | CNS(=O)(=O)NCCOc1nc(N)nc(-c2ccccc2)c1-c1cc(C)nc(C(F)(F)F)c1 [Example 121] | –
7 | 8.74 | 63 | 0.88 nM and 0.69 nM | 35 nM and 53 nM | Cc1cc(-c2c(OCCn3ccccc3=O)nc(N)nc2-c2ccc(F)cc2)cc(C(F)F)n1 [Example 122, 1-(2-((2-amino-5-(2-(difluoromethyl)-6-methylpyridin-4-yl)-6-(4-fluorophenyl)pyrimidin-4-yl)oxy)ethyl)pyridin-2(1H)-one] | –
8 | 8.92 and 8.37 | 93.2 | 3.1 nM and 2.6 nM | 77 nM | CCc1c(COc2nc(N)nc(-c3ccc(F)cc3)c2-c2cc(C)nc(C(F)F)c2)nnn1CC [Example 135, 4-((1,5-diethyl-1H-1,2,3-triazol-4-yl)methoxy)-5-(2-(difluoromethyl)-6-methylpyridin-4-yl)-6-(4-fluorophenyl)pyrimidin-2-amine] | –
9 | 9.22 and 8.96 | 15.8 | 2.3 nM | 29 nM and 27 nM | CCc1c(COc2nc(N)nc(-c3ccc(F)cc3)c2-c2cc(C)nc(C(F)F)c2)nnn1C [Example 136, 5-(2-(difluoromethyl)-6-methylpyridin-4-yl)-4-((5-ethyl-1-methyl-1H-1,2,3-triazol-4-yl)methoxy)-6-(4-fluorophenyl)pyrimidin-2-amine] | –
10 | 8.85 and 8.38 | 41.6 | 1.3 nM | 11 nM | Cc1cc(-c2c(OCCN(C)c3cccc(OCCO)n3)nc(N)nc2-c2ccc(F)cc2)cc(C(F)F)n1 [Example 154, 2-((6-((2-((2-amino-5-(2-(difluoromethyl)-6-methylpyridin-4-yl)-6-(4-fluorophenyl)pyrimidin-4-yl)oxy)ethyl)(methyl)amino)pyridin-2-yl)oxy)ethan-1-ol] | –
11 | – | – | – | – | Cc1cc(-c2c(OCc3nccn3CCC(=O)O)nc(N)nc2-c2ccc(F)cc2)cc(C(F)F)n1 [Example 204, 3-(2-(((2-amino-5-(2-(difluoromethyl)-6-methylpyridin-4-yl)-6-(4-fluorophenyl)pyrimidin-4-yl)oxy)methyl)-1H-imidazol-1-yl)propanoic acid] | pIC50 ([1]; HTRF): 7.89; IC50 [2]: 456 nM; IC50 [3, 8]: 24 nM
12 | – | – | – | – | Cc1cc(-c2c(OCc3nccn3C(C)CO)nc(N)nc2-c2ccc(F)cc2)cc(C(F)F)n1 (stereo not drawn) [Example 209, 2-(2-(((2-amino-5-(2-(difluoromethyl)-6-methylpyridin-4-yl)-6-(4-fluorophenyl)pyrimidin-4-yl)oxy)methyl)-1H-imidazol-1-yl)propan-1-ol] | pIC50 ([1]; HTRF): 8.72 and 8.38; IC50 [2]: 125 nM; IC50 [3, 8]: 1.6 nM and 2.4 nM; IC50 [3, 9]: 84 nM and 97 nM
13 | – | – | – | – | Cc1cc(-c2c(OCc3nccn3CCCC(=O)O)nc(N)nc2-c2ccc(F)cc2)cc(C(F)F)n1 [Example 219, 4-(2-(((2-amino-5-(2-(difluoromethyl)-6-methylpyridin-4-yl)-6-(4-fluorophenyl)pyrimidin-4-yl)oxy)methyl)-1H-imidazol-1-yl)butanoic acid] | pIC50 ([1]; HTRF): 8.05; IC50 [2]: 170 nM
14 | – | – | – | – | Cc1cc(-c2c(OCc3cccc(C(C)(C)O)n3)nc(N)nc2-c2ccc(F)cc2)cc(C(F)F)n1 [Example 225] | pIC50 ([1]; HTRF): 7.74; IC50 [2]: 15.1 nM; IC50 [3, 9]: 136 nM and 200 nM and 176 nM
15 | – | – | – | – | CNC(=O)CNCc1cccc(COc2nc(N)nc(-c3ccc(F)cc3)c2-c2cc(C)nc(C(F)F)c2)n1 [Example 440, 2-(((6-(((2-amino-5-(2-(difluoromethyl)-6-methylpyridin-4-yl)-6-(4-fluorophenyl)pyrimidin-4-yl)oxy)methyl)pyridin-2-yl)methyl)amino)-N-methylacetamide] | IC50 [2, 10]: 95 nM; IC50 [3, 11]: 215 nM
16 | – | – | – | – | Cc1cc(-c2c(OCc3cccc(NC(CO)CO)n3)nc(N)nc2-c2ccc(F)cc2)cc(C(F)F)n1 [Example 442, 2-((6-(((2-amino-5-(2-(difluoromethyl)-6-methylpyridin-4-yl)-6-(4-fluorophenyl)pyrimidin-4-yl)oxy)methyl)pyridin-2-yl)amino)propane-1,3-diol] | IC50 [2, 10]: 208 nM; IC50 [3, 11]: 177 nM
